Here are results for six compounds from patent US20260297060A1, “COMPOUNDS FOR THE DEGRADATION OF MUTANT BRAF” (C4 THERAPEUTICS, INC., priority 2023, published 2026).

Test [1] deals with T1, BRAF V600E (Homo sapiens, UniProt P15056+Q96SW2, V600E).
T1 construct: knock-in of the HiBiT tag to the endogenous BRAF V600E locus; host or cells: A375.10 (A375 clonal line, CRISPR HiBiT knock-in at the endogenous BRAF V600E locus)
Put plainly: BRAF V600E HiBiT Degradation Assay. The class given is cell-based. The following applies: A375.10 cells, BRAF V600E. As to the method:
Compounds of this invention were tested for degradation of mutant BRAF V600E using the HiBiT assay, a luminescence-based assay for quantification of cellular protein levels using the Nano-Glo® HiBiT Lytic Detection System (Catalog No. N3050, Promega, Madison, WI USA). This assay utilizes the HiBiT tag on a protein of interest, which creates a luminescent signal in the presence of a complementing peptide and its substrate, the quantification of which is proportional to the amount of HiBiT-tagged protein in the cell.
The cell line A375, which is homozygous for the BRAF V600E mutation, was purchased from ATCC (Catalog No. CRL-1619, Manassas, VA, USA). A375 cells were engineered to express HiBiT tagged BRAF V600E by CRISPR knock-in of the HiBiT tag to the endogenous BRAF V600E locus, followed by selection of a clonal population containing the appropriate knock-in (referred to here as cell line A375.10). A375.10 cells were maintained at 37° C. in an atmosphere of 5% CO2 in Dulbecco's modified Eagle Medium (DMEM) with high glucose (Catalog No. 11965092), supplemented with 10% fetal bovine serum (FBS; Catalog No. 10437036), and 10 mM HEPES (Catalog No. 15630130), all obtained from Thermofisher Scientific (Waltham, MA, USA). Cell culture flasks and 384-well microplates were acquired from VWR (Radnor, PA, USA).
Test compounds were prepared by dissolving neat compounds in DMSO (Catalog No. D8418, Sigma-Aldrich, Inc., St. Louis, MO, USA) to generate 10 mM stock solutions, which were serially diluted (half log) in DMSO to generate an 11-point dose series (1000× final treatment concentration) in a 384-Well Low Dead Volume Microplate (Catalog No. LP-0200, Labcyte, San Jose, CA, USA). Using the Echo 550 Acoustic Liquid Handler (Labcyte), 30 nL of serially diluted compound solutions were dispensed in duplicate to 384-well TC-treated microplates (Catalog No. 3571, Corning, Glendale, CA, USA) and 30 nL of DMSO was dispensed to control wells. A375.10 cells resuspended in growth media without phenol red (Catalog No. 21063-029, Thermofisher Scientific) were then added to 384-well plates containing the 11-point dose series of compounds in duplicate (maximum 10 μM concentration for final treatment) at a density of 12,000 cells/well in 30 μl. Plates were then spun briefly, and cells were incubated with compound at 37° C. for 2 hours, 6 hours, or 24 hours.
Following the appropriate treatment time, Nano-Glo® HiBiT Lytic Assay reagents were added to the cells per the manufacturer's instructions by adding 30 μl of reagent per well, and the luminescence signal was acquired by plate reader. Cells treated with DMSO only (no test compound treatment) were used as the negative control (N). Media only (no cells added) with Nano-Glo reagent addition was used as the background or positive control (P). The percent response of compound treated samples were calculated by subtracting out the background signal (P) and normalizing to the DMSO control (N) as follows.
% Response=100×(Treated Signal−Average (P))/(Average (N)−Average (P)).
Data were analyzed with a 4-parameter logistic fit to generate sigmoidal dose-response curves. The DC50 is the concentration of compound at which 50% of the cellular BRAF V600E has been degraded. The Emax, or maximum effect of each compound, represents the amount of residual protein remaining in the cell following compound treatment. The IP, or inflection point of the dose-response curve, is the concentration of compound at which 50% of the observed degradation response is achieved.
The experiment was conducted at least once for each compound. If the experiment was conducted multiple times, the data shown in the table is the average of the two or more experiments.

Test [2] concerns A375-NRAS^Q61K cells. The test can be described thus: CTGlo Cell Viability Assay, A375-NRAS^Q61K (A375.11) cells, 96 hours. Particulars: A375.11 (A375-NRAS^Q61K) cells; for CTGlo A375.11 96 hours Emax / Emax: lowest % viability achieved. The class given is cell-based, human. As to the method:
Compounds of this invention were tested for their effect on the viability of A375-NRAS^Q61K cells by quantification of ATP using the CellTiter-Glo® 2.0 Cell Viability Assay (Catalog No. G9243, Promega, Madison, WI, USA). This assay produces a luminescent signal in the presence of ATP, which is indicative of metabolically active cells, making the luminescence readout proportional to the number of viable cells.
A375-NRAS^Q61K cells (harboring BRAF homozygous V600E mutation and NRAS homozygous Q61K mutation) were purchased from ATCC (Catalog No. CRL-1619IG-2, Manassas, VA, USA). A375-NRAS^Q61K cells (also referred to here as A375.11) were maintained at 37° C. in an atmosphere of 5% CO2 in Dulbecco's modified Eagle Medium (DMEM) with high glucose (Catalog No. 11965092), supplemented with 10% fetal bovine serum (FBS; Catalog No. 10437036), and 10 mM HEPES (Catalog No. 15630130), all obtained from Thermofisher Scientific (Waltham, MA, USA). Cell culture flasks and 384-well microplates were acquired from VWR (Radnor, PA, USA).
Test compounds were prepared by dissolving neat compounds in DMSO (Catalog No. D8418, Sigma-Aldrich, Inc., St. Louis, MO, USA) to generate 10 mM stock solutions, which were serially diluted (half log) in DMSO to generate an 11-point dose series (1000× final treatment concentration) in a 384-Well Low Dead Volume Microplate (Catalog No. LP-0200, Labcyte, San Jose, CA, USA). Using the Echo 550 Acoustic Liquid Handler (Labcyte), 50 nL of serially diluted compound solutions were dispensed in duplicate to 384-well TC-treated microplates (Catalog No. 3571, Corning, Glendale, CA, USA) and 50 nL of DMSO was dispensed to control wells. A375-NRAS^Q61K cells were resuspended in growth media and added to 384-well plates containing a […] of compounds in duplicate (maximum 10 μM concentration for final treatment) at a density of 250 cells/well in 50 μl. Cells were also plated to a 384-well plate with no compound treatment, to which CellTiter-Glo® reagent was added and luminescence was read right after plating to act as a baseline signal at time of plating (To). Plates treated with compound were then spun briefly, and cells were incubated with compound at 37° C. for 96 hours.
After 96 hours compound treatment, CellTiter-Glo® reagent was added to the cells at 25 μl per well and luminescence was read out on the PHERAstar plate reader (BMG Labtech, Ortenberg, Germany). Cells treated with DMSO only (no test compound treatment) were used as the negative control (N). DMSO treated cells with no CellTiter-Glo® reagent added were used as the background or positive control (P). Viability was determined by subtracting out the average background signal (P) and normalized to the average untreated signal (N) set at 100%.
Data were analyzed with a 4-parameter logistic fit to generate sigmoidal dose-response curves. The half-maximal inhibition of cell growth (GI50) is the concentration at which the fitted curve crosses 50%. The Emax, or maximum effect of each compound, represents the lowest % viability achieved following compound treatment.

Setting [3] is: 2 hours, inflection point, read-out: HiBiT-Degradation A375.10 BRAF 2 hours IP.
[4] abbreviates: 2 hours, read-out: HiBiT-Degradation A375.10 BRAF 2 hours DC50.
The mark [5] stands for this setting: 2 hours, residual protein remaining.
[6] abbreviates: 6 hours, inflection point, read-out: HiBiT-Degradation A375.10 BRAF 6 hours IP.
[7] abbreviates: 6 hours, read-out: HiBiT-Degradation A375.10 BRAF 6 hours DC50.
Where [8] appears, read: HiBiT, 24 hours, read-out: HiBiT-Degradation A375.10 BRAF 24 hours DC50.
Setting [9] is: HiBiT, 24 hours, read-out: HiBiT-Degradation A375.10 BRAF 24 hours IP.
[10] abbreviates: 2 hours, residual protein remaining, read-out: HiBiT-Degradation A375.10 BRAF 2 hours Emax.

Like-named read-outs stand apart in the source and are kept apart here.

For orientation: GI50 means the concentration giving 50% growth inhibition. A low value points to more potent growth inhibition.

T1 sequence (P15056 whole entry V600E): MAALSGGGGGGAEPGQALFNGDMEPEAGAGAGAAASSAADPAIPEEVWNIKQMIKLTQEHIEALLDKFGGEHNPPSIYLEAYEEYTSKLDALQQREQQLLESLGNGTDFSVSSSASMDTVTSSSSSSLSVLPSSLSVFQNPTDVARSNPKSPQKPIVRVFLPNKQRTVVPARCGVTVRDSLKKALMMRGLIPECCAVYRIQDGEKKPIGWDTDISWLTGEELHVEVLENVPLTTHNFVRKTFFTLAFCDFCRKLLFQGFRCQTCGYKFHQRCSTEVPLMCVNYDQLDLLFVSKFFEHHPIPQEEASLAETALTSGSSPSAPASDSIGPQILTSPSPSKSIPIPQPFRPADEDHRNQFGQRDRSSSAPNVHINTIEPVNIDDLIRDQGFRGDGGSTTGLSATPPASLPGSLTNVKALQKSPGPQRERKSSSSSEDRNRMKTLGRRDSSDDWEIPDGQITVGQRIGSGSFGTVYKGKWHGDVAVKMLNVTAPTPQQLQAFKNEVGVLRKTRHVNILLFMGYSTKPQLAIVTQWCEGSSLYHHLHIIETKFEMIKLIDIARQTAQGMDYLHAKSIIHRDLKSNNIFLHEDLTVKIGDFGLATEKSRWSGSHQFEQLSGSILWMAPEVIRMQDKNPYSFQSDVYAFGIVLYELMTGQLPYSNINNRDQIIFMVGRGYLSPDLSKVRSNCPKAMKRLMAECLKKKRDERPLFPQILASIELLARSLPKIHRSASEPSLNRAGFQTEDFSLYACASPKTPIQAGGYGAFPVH
T1 sequence (Q96SW2 whole entry): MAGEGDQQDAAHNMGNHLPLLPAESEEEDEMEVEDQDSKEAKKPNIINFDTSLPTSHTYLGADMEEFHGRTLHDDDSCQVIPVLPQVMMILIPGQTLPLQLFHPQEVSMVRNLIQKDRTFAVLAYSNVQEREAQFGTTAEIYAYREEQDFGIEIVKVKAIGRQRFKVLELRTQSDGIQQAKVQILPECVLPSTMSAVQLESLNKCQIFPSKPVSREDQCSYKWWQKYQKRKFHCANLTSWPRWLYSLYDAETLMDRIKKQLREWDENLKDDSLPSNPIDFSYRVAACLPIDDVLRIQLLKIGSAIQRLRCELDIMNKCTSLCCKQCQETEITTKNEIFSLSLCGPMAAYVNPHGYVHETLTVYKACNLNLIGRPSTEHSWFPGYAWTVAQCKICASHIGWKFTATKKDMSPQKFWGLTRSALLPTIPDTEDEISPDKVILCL
T1 sequence (Q16531 whole entry partner): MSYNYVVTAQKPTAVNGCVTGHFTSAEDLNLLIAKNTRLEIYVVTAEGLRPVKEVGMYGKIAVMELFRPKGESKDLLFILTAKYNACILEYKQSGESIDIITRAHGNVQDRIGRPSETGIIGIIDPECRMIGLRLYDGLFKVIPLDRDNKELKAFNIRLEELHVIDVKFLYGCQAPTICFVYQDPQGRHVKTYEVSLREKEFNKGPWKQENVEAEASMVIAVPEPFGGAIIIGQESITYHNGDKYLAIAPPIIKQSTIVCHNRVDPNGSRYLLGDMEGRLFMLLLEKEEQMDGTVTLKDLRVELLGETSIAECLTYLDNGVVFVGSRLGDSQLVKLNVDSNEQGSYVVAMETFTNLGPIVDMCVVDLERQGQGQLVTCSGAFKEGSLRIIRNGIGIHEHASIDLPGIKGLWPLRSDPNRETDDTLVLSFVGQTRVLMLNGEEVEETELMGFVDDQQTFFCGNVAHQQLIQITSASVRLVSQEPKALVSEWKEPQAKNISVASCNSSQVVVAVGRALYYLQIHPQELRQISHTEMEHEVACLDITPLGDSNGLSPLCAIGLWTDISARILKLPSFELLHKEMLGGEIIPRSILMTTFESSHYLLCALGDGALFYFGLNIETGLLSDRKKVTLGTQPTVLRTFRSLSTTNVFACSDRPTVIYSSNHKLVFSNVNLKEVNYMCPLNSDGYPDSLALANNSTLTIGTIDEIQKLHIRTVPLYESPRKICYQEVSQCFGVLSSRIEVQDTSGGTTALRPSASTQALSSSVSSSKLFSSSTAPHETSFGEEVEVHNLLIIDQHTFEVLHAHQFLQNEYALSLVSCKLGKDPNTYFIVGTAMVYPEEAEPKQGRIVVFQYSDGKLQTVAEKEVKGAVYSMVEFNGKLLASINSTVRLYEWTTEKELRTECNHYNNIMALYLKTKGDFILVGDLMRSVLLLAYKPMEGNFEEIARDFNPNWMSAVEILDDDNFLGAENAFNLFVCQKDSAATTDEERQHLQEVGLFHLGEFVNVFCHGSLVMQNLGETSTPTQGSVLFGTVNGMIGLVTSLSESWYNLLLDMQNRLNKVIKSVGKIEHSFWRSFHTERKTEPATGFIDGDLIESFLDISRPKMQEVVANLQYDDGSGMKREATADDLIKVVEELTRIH

For the compound `CCN(C)S(=O)(=O)Nc1ccc(F)c(Oc2ccc3ncn([C@H]4CCC5(CCN(C6CCC(c7ccc(NC8CCC(=O)NC8=O)cc7F)CC6)CC5)C4)c(=O)c3c2)c1C#N` (single isomer, unassigned) [Compound 25], the DC50 in test [1] (setting [3]) was < 1000 nM. In test [1] (setting [4]), the DC50 lay within 1000 to 10000 nM. Further, in test [1] (setting [5]), the “HiBiT-Degradation A375.10 BRAF 2 hours Emax” value is “** (<90% and >50%)”. Also, in test [2], the GI50 was < 1000 nM; the “CTGlo A375.11 96 hours Emax” value is “** (<90% and >50%)”.

In the case of `CCN(C)S(=O)(=O)Nc1ccc(F)c(Oc2ccc3ncn([C@H]4COC5(CCN(C6CC(c7ccc(NC8CCC(=O)NC8=O)cc7F)C6)CC5)C4)c(=O)c3c2)c1C#N` (single isomer, unassigned) [Compound 63], the DC50 in test [1] (setting [3]), in test [1] (setting [4]), in test [1] (setting [6]), in test [1] (setting [7]), in test [1] (setting [8]) and in test [1] (setting [9]) was < 1000 nM throughout. Further, in test [1] (setting [5]), the “HiBiT-Degradation A375.10 BRAF 2 hours Emax” value is “*** (<=50%)”. In test [1] (6 hours, residual protein remaining), the “HiBiT-Degradation A375.10 BRAF 6 hours Emax” value is given as “*** (<=50%)”. Also, the “HiBiT-Degradation A375.10 BRAF 24 hours Emax” value in test [1] (HiBiT, 24 hours) is recorded as “*** (<=50%)”. Moreover, the GI50 in test [2] was < 1000 nM. For the same compound, the “CTGlo A375.11 96 hours Emax” value in test [2] is given as “*** (<=50%)”.

For the compound `Cn1nc(N2CCC(=O)NC2=O)c2cc(F)c(N3CC4(CC(N5CCC6(CC5)C[C@@H](n5cnc7ccc(Oc8c(F)ccc(NS(=O)(=O)N9CCOCC9)c8C#N)cc7c5=O)CO6)C4)C3)cc21` [Compound 242, N-[2-cyano-3-[3-[(3R)-8-[2-[3-(2,4-dioxohexahydropyrimidin-1-yl)-5-fluoro-1-methyl-indazol-6-yl]-2-azaspiro[3.3]heptan-6-yl]-1-oxa-8-azaspiro[4.5]decan-3-yl]-4-oxo-quinazolin-6-yl]oxy-4-fluoro-phenyl]morpholine-4-sulfonamide], the DC50 is < 1000 nM in test [1] (setting [3]) and 1000 to 10000 nM in test [1] (setting [4]). Also, the Emax in test [1] (setting [10]) lay within 50 to 90%; in test [2] (Homo sapiens, 96 h), 50 to 90%. For the same compound, the concentration for 50% growth inhibition (GI50) in test [2] (Homo sapiens, 96 h) was > 10000 nM.

Regarding `CCN(C)S(=O)(=O)Nc1ccc(F)c(Oc2ccc3ncn([C@@H]4CCC5(CCN(C6CCC(c7ccc(NC8CCC(=O)NC8=O)cc7F)CC6)CC5)C4)c(=O)c3c2)c1C#N` (single isomer, unassigned) [Compound 22], the DC50 in test [1] (setting [3]) and in test [1] (setting [4]) was < 1000 nM in each case. Besides, the Emax in test [1] (setting [10]) lay within 50 to 90%; in test [2] (Homo sapiens, 96 h), 50 to 90%. Besides, the GI50 in test [2] (Homo sapiens, 96 h) was > 10000 nM.

Take `CCN(C)S(=O)(=O)Nc1ccc(F)c(Oc2ccc3ncn(C4[C@H]5CN(C6CCC(c7cc8c(cc7F)c(N7CCC(=O)NC7=O)nn8C)CC6)C[C@@H]45)c(=O)c3c2)c1C#N` (single isomer, unassigned) [Compound 240]: the DC50 in test [1] (setting [3]) and in test [1] (setting [4]) was < 1000 nM throughout. For the same compound, the Emax in test [1] (setting [10]) is < 50%; in test [2] (Homo sapiens, 96 h), 50 to 90%. The compound further gave a GI50 in test [2] (Homo sapiens, 96 h) of 1000 to 10000 nM.

On to `CCN(C)S(=O)(=O)Nc1ccc(F)c(Nc2ccc3ncn([C@H]4COC5(CCN(C6CCC(c7ccc(NC8CCC(=O)NC8=O)cc7F)CC6)CC5)C4)c(=O)c3c2F)c1C#N` (single isomer, unassigned) [Compound 98], for which the DC50 in test [1] (setting [6]), in test [1] (setting [7]), in test [1] (setting [8]) and in test [1] (setting [9]) was < 1000 nM each time. In addition, the Emax was < 50% in test [1] (6 hours, residual protein remaining, read-out: HiBiT-Degradation A375.10 BRAF 6 hours Emax) and < 50% in test [1] (HiBiT, 24 hours, read-out: HiBiT-Degradation A375.10 BRAF 24 hours Emax).
